In US4738929A, “Purified culture of streptomyces galanosa” (Warner-Lambert Company, priority 1986, dated 1988):
Values after ≈ are worked out from the molar mass of the structure shown.

Assays:
Salmonella typhimurium = experiment: Microtiter dilution MIC, Salmonella typhimurium; type: cell-based; conditions: Salmonella enterica, Mueller-Hinton broth, 37° C., 16-24 hours, read-out: Minimal Inhibitory Concentration
Method: (§1) The compounds of the present invention and their pharmaceutically acceptable salts are useful as antimicrobial agents. The antimicrobial activity of the representative examples of compounds in accordance with the present invention against five species of gram-negative bacteria, seven species of gram-positive bacteria, four species of yeast, and two species of fungi were determined using the microtiter dilution technique. This method is described by T. B. Conrath, "Handbook of Microtiter Procedures," Dynatech Corp., Cambridge, Mass., USA (1972); and T. L. Gavan et al, "Microdilution Test Procedures," in Manual of Clinical Microbiology, E. H. Lennette, Ed., American Soc. for Microbiol., Washington, D.C., U.S.A. (1980).
(§2) Each agent is suspended in a nonaqueous solvent for several minutes to sterilize the compound or, if the compound is completely soluble in water, the aqueous solution is sterilized by passage through a 0.2-0.45 micrometer membrane filter.
(§3) Each well of a sterile 96-well microdilution tray is filled under aseptic conditions with 0.1 ml of Mueller-Hinton broth (for antibacterial tests), or yeast extract-peptone-dextrose or buffered supplemented yeast nitrogen base (for tests with yeasts or fungi).
(§4) […] of the test compound solution is added to each of the eight wells in the first row of the tray. A microdilutor apparatus is used to simultaneously mix the contents of these wells and to transfer aliquots to each succeeding row of cells to obtain a range of serially diluted solutions. The last row of wells is untreated and serves as a control.
(§5) Each well containing broth and test compound is inoculated with about ten microliters of inoculum of the test microorganism. One well in the last row of wells (which is free of test compound) is not inoculated and is used as a sterility control The trays are sealed and incubated at 37° C. for 16-24 hours (for bacteria) or at 28° C. for 36-48 hours (yeasts or fungi). During incubation, the inoculated medium is shaken at 100-140 rpm to increase contact between the microorganism cells and test compounds.
(§6) After the incubation period, each plate is evaluated by determining the lowest concentration of test compound required to inhibit the growth of the microorganism and recorded as a minimal inhibitory concentration (MIC).

Staphylococcus aureus = experiment: Microtiter dilution MIC, Staphylococcus aureus; type: cell-based; conditions: Mueller-Hinton broth, 37° C., 16-24 hours, read-out: Minimal Inhibitory Concentration
Method: as §1, §2, §3, §4, §5, §6

Mucor paraciticus = experiment: Microtiter dilution MIC, Mucor paraciticus; type: cell-based; conditions: yeasts or fungi, 28° C., 36-48 hours, read-out: Minimal Inhibitory Concentration
Method: as §1, §2, §3, §4, §5, §6

P388 leukemia cell line = experiment: In vivo antineoplastic activity against transplanted P388 leukemia in mice; conditions: Days 1-9
Method: The in vivo antineoplastic activity of representative compounds of the present invention against the transplanted P388 leukemia cell line in mice was determined in accordance with the protocol given in Geran et al, cited above. The mice were infected intraperitoneally on Day 0 and then administered the indicated doses of the test compounds on Days 1-9.

Rhizopus japonicus = experiment: Microtiter dilution MIC, Rhizopus japonicus; type: cell-based; conditions: yeasts or fungi, 28° C., 36-48 hours, read-out: Minimal Inhibitory Concentration
Method: as §1, §2, §3, §4, §5, §6

Torulopsis albida = experiment: Microtiter dilution MIC, Torulopsis albida; type: cell-based; conditions: Naganishia albida; yeasts or fungi, 28° C., 36-48 hours; read-out: Minimal Inhibitory Concentration
Method: as §1, §2, §3, §4, §5, §6

Bacillus megaterium = experiment: Microtiter dilution MIC, Bacillus megaterium; type: cell-based; conditions: Priestia megaterium; Mueller-Hinton broth, 37° C., 16-24 hours; read-out: Minimal Inhibitory Concentration
Method: as §1, §2, §3, §4, §5, §6

Bacillus cereus = experiment: Microtiter dilution MIC, Bacillus cereus; type: cell-based; conditions: Mueller-Hinton broth, 37° C., 16-24 hours, read-out: Minimal Inhibitory Concentration
Method: as §1, §2, §3, §4, §5, §6

Rhodotorula aurantiaca = experiment: Microtiter dilution MIC, Rhodotorula aurantiaca; type: cell-based; conditions: Buckleyzyma aurantiaca; yeasts or fungi, 28° C., 36-48 hours; read-out: Minimal Inhibitory Concentration
Method: as §1, §2, §3, §4, §5, §6

Streptococcus pneumoniae = experiment: Microtiter dilution MIC, Streptococcus pneumoniae; type: cell-based; conditions: Mueller-Hinton broth, 37° C., 16-24 hours, read-out: Minimal Inhibitory Concentration
Method: as §1, §2, §3, §4, §5, §6

[1] = test system: L1210 murine leukemia cell line; experiment: Cytotoxic activity against L1210 murine leukemia in vitro; type: cell-based; conditions: Mus musculus, 50% inhibition of growth, duplicate tests
Method: The antineoplastic activities of representative compounds of the present invention against the L1210 murine leukemia cell line in vitro were determined using the methods detailed by R. I. Geran et al, "Protocols for Screening Chemical Agents and Natural Products Against Animal Tumors and Other Biological Systems," 3rd Edition, Cancer Chemotherapy Reports, Part 3, Vol. 3, pages 1-87 (1972) which is incorporated herein by reference.
The IC50 values are the concentration of compound required to produce 50% inhibition of growth of the cell line.

Branhamella catarrhalis = experiment: Microtiter dilution MIC, Branhamella catarrhalis; type: cell-based; conditions: Moraxella catarrhalis; Mueller-Hinton broth, 37° C., 16-24 hours; read-out: Minimal Inhibitory Concentration
Method: as §1, §2, §3, §4, §5, §6

Micrococcus luteus = experiment: Microtiter dilution MIC, Micrococcus luteus; type: cell-based; conditions: Mueller-Hinton broth, 37° C., 16-24 hours, read-out: Minimal Inhibitory Concentration
Method: as §1, §2, §3, §4, §5, §6

[2] = test system: Schizosaccharomyces pombe; experiment: Microtiter dilution MIC, Schizosaccharomyces pombe; type: cell-based; conditions: yeasts or fungi, 28° C., 36-48 hours, read-out: Minimal Inhibitory Concentration
Method: as §1, §2, §3, §4, §5, §6

Streptococcus faecalis = experiment: Microtiter dilution MIC, Streptococcus faecalis; type: cell-based; conditions: Enterococcus faecalis; Mueller-Hinton broth, 37° C., 16-24 hours; read-out: Minimal Inhibitory Concentration
Method: as §1, §2, §3, §4, §5, §6

Streptococcus pyogenes = experiment: Microtiter dilution MIC, Streptococcus pyogenes; type: cell-based; conditions: Mueller-Hinton broth, 37° C., 16-24 hours, read-out: Minimal Inhibitory Concentration
Method: as §1, §2, §3, §4, §5, §6

Saccharomyces cerevisiae = experiment: Microtiter dilution MIC, Saccharomyces cerevisiae; type: cell-based; conditions: yeasts or fungi, 28° C., 36-48 hours, read-out: Minimal Inhibitory Concentration
Method: as §1, §2, §3, §4, §5, §6

[3] = test system: Escherichia coli (PD-04863); experiment: Microtiter dilution MIC, Escherichia coli (PD-04863); type: cell-based; conditions: Mueller-Hinton broth, 37° C., 16-24 hours, read-out: Minimal Inhibitory Concentration
Method: as §1, §2, §3, §4, §5, §6

Pseudomonas aeruginosa = experiment: Microtiter dilution MIC, Pseudomonas aeruginosa; type: cell-based; conditions: Mueller-Hinton broth, 37° C., 16-24 hours, read-out: Minimal Inhibitory Concentration
Method: as §1, §2, §3, §4, §5, §6

Alcaligenes viscolactis = experiment: Microtiter dilution MIC, Alcaligenes viscolactis; type: cell-based; conditions: Mueller-Hinton broth, 37° C., 16-24 hours, read-out: Minimal Inhibitory Concentration
Method: as §1, §2, §3, §4, §5, §6

Which MIC (Salmonella typhimurium) does the source give for CCN(CC)CCNC(=O)c1ccc(O)c2nc3c(C=O)c(O)c(C)c(O)c3nc12 [Example 16, N-[2-(diethylamino)ethyl]-6-formyl-4,7,9-trihydroxy-8-methyl-1-phenazinecarboxamide] here?
The MIC was 37 µg/mL (≈ 89.7 µM).

And the MIC (Staphylococcus aureus)?
The MIC was 37 µg/mL (≈ 89.7 µM).

What about the MIC (Mucor paraciticus) of the same compound?
Its MIC is 111 µg/mL (≈ 269 µM).

And the “% T/C” value (P388 leukemia cell line; 19 mg/kg/injection)?
Its value is 136%.

And the “% T/C” value (P388 leukemia cell line; 37.5 mg/kg/injection)?
The value was 147%.

What about the “% T/C” value (P388 leukemia cell line; 75 mg/kg/injection) of the same compound?
Its value is 166%.

What about the “% T/C” value (P388 leukemia cell line; 150 mg/kg/injection) of the same compound?
Its value is 213%.

What about the MIC (Rhizopus japonicus) of the same compound?
The MIC was 111 µg/mL (≈ 269 µM).

What about the MIC (Torulopsis albida) of the same compound?
The MIC was 37 µg/mL (≈ 89.7 µM).

What about the MIC (Bacillus megaterium) of the same compound?
The MIC was 37 µg/mL (≈ 89.7 µM).

What about the MIC (Bacillus cereus) of the same compound?
The MIC was 12.3 µg/mL (≈ 29.8 µM).

And the MIC (Rhodotorula aurantiaca)?
The MIC was 37 µg/mL (≈ 89.7 µM).

And the MIC (Streptococcus pneumoniae)?
The MIC was 37 µg/mL (≈ 89.7 µM).

What about the IC50 [1] of the same compound?
The IC50 was 0.33 µg/mL (≈ 0.8 µM).

What about the MIC (Branhamella catarrhalis) of the same compound?
Its MIC is 12.3 µg/mL (≈ 29.8 µM).

And the MIC (Micrococcus luteus)?
Its MIC is 12.3 µg/mL (≈ 29.8 µM).

And the MIC [2]?
Its MIC is 37 µg/mL (≈ 89.7 µM).

What about the MIC (Streptococcus faecalis) of the same compound?
The MIC was 111 µg/mL (≈ 269 µM).

What about the MIC (Streptococcus pyogenes) of the same compound?
Its MIC is 37 µg/mL (≈ 89.7 µM).

What about the MIC (Saccharomyces cerevisiae) of the same compound?
Its MIC is 111 µg/mL (≈ 269 µM).

What about the MIC [3] of the same compound?
The MIC was 37 µg/mL (≈ 89.7 µM).

And the MIC (Pseudomonas aeruginosa)?
Its MIC is 333 µg/mL (≈ 807 µM).

And the MIC (Alcaligenes viscolactis)?
The MIC was 12.3 µg/mL (≈ 29.8 µM).
